In US20210113499A1, “CERAMIDE MIMICS FOR TREATMENT OF ALZHEIMER'S DISEASE” (University of Kentucky Research Foundation, priority 2019, published 2021):

Tested on: 5×FAD exosomes (Aβ-associated astrosomes)
Experiment: Incubation of serum exosomes with ceramide analogs or anti-ceramide IgG; vesicle size by nanoparticle tracking analysis (ZetaView)
Format: biochemical, mouse
Settings: for Vesicle size reduced: 5×FAD serum exosomes incubated at 37° C. for 16 h with 50 μM ceramide analog, NTA
Protocol: Sera were isolated from freshly obtained mouse blood. Blood was drawn through heart puncture and was allowed to clot at room temperature for 30 min. Blood was then centrifuged at 1,800×g for 10 min at 4° C. The clear upper layer was transferred to a fresh tube and centrifuged at 3,000×g for 15 min to pellet residual blood cells. Exosomes were extracted using ExoQuick exosome solution (EXOQ; System Biosciences, Inc., Mountain View, Calif., USA) according to the manufacturer protocol. Briefly, one-fourth milliliter aliquots of serum was treated with 67 μl of ExoQuick exosome solution, followed by incubation for 60 min at 4° C. to precipitate total exosomes. Tubes were then centrifuged at 1,500×g for 30 min. Each exosome pellet was resuspended in 100 μl of PBS with 1× Halt™ Protease Inhibitor Cocktail (Thermo Fisher, Massachusetts, USA). In certain experiments exosomes were labeled with PKH67 Green Fluorescent Dye. The exosomes were labeled with PKH67 Green Fluorescent Cell Linker Kit for General Cell Membrane Labelling (Sigma-Aldrich) according to the manufacturer's protocol. Briefly, ExoQuick pellets were resuspended in PBS, 1 ml of Diluent C (CGLDIL, Sigma-Aldrich) was then added to each sample. As a control, 1 ml of Diluent C after adding the same volume of PBS was used. Next, 4 μl of PKH67 dye was added to 1 ml of Diluent C then mixed with the exosomes and the control, PKH67/Diluent C mixture was ultra-centrifuged before being added to samples. The samples were allowed to incubate <5 min on a rotor plate. One ml of 1% BSA was then added to bind excess dye. Samples were ultra-centrifuged at 110,000×g for 70 min, washed and centrifuged again. For exosomes quantification, nanoparticle tracking analysis (NTA) with the ZetaView PMX110 (Particle Metrix) was used. Briefly, exosomes were resuspended in PBS. Two ml of appropriately diluted samples were injected into the ZetaView cell. The instrument was set to obtain NTA measurements at 11 positions, two cycles at each position. […]

| SMILES | Vesicle size reduced | Aggregates formed by 5×FAD serum astrosomes associated with Aβ (size distribution, FIG. 2D) (5×FAD exosomes treated with ceramide analog, particle diameter by NTA) |
| --- | --- | --- |
| CCCCCCCCCCCCCCCC(=O)N(CCO)CCO [B16, N-palmitoyl bisethanolamine] | not |  |
| CCCCCCCC/C=C\CCCCCCCC(=O)NC(CO)CO [S18, N-oleoyl serinol] | 17% | reduced |
